# Measured values as given in article PMC8359193, “Summary of reference chemicals evaluated by the fish short‐term reproduction assay, OECD TG229, using Japanese Medaka, Oryzias latipes” (Journal of Applied Toxicology, 2021).
# Counter-ions that a name gives are not always drawn.
# Tests used:
# [1] = system: Japanese medaka (Oryzias latipes); experiment: Fish short-term reproduction assay (FSTRA, OECD TG229), 21-day flow-through exposure; conditions: for Fertility rate (%) / Mortality (%) Female / Mortality (%) Male / Number of fertilized eggs / Number of total eggs / SSC Female / SSC Male / VTG (ng/mg of liver) Female / VTG (ng/mg of liver) Male: 21 days; for GSI Female / GSI Male / HSI Female / HSI Male / Length Female / Length Male / Weight Female / Weight Male: at completion of exposure; for effect on fecundity (number of total eggs), in words: within the test concentrations
# Method: The experimental studies on the FSTRA for the 16 chemicals were conducted in two laboratories in Japan, the National Institute for Environmental Studies (NIES, Lab‐1) and the Institute of Environmental Ecology, IDEA Consultants Inc. (Lab‐2), in accordance with OECD TG229 (OECD, [2012a]) (Table 1).
# The NIES‐R strain of Japanese medaka (O. latipes), one of the orange‐red varieties, was used in all the 16 chemical studies. For the studies, healthy and mature male and female medakas at 16 ± 2 weeks old were selected from a single‐stock population, which were bred within the test facilities. The test fish were maintained in conditions similar to the assay for at least 7 days, and spawning status was checked during the acclimation period. On the day the chemical exposure commenced, to ensure balanced distribution of test fish between the treatment groups for the reproductive status of the fish, the replicate vessels (fish tanks), with each containing three male and female medaka, were distributed to each treatment and control group, for example, by a randomized block design based on the number of fertilized eggs laid in the last 5–7 days during the acclimation, in each assay.
# The water solubility of the test chemical was also taken into consideration when deciding the highest test concentration. To set the lower concentrations, a spacing factor ranging between two and five was used. All assays included a dilution water control (DWC).
# Test solutions at the selected concentrations were prepared by diluting a stock solution, which was prepared by an adequate method depending on the physicochemical properties of the test chemicals, for example, by simply mixing the test chemical in dilution water by stirring and/or sonicating for an appropriate time or by using a solid–liquid saturator. In the two laboratories, flow‐through exposure systems, in which a series of test solutions at the target concentrations can be continuously prepared and delivered to test vessels at controlled flow rates (Haselman et al., [2016]; Watanabe et al., [2017]), were used for the exposure experiments.
# In the FSTRA, three mature adult males and females in a test vessel were exposed together to the test chemicals in flow‐through condition for 3 weeks. In all the assays, each treatment group, including the DWC group, contained four replicate tanks. During the exposure period, the fish were fed a sufficient amount of live brine shrimp nauplii (newly hatched Artemia sp.) for daily spawning ad libitum. Fecal material in the tanks was appropriately removed by siphoning after feeding. Water temperature of test solutions was recorded for at least one vessel in each treatment and control group every day and for all vessels at least once a week. Furthermore, dissolved oxygen and pH of test solutions were measured for all test vessels at least once a week. Mortality and abnormal behavior and appearance in the fish exposed to test chemicals were daily observed, and any fish that died were removed from the tank as soon as possible. To assess the reproductive status, all eggs females spawned were collected every day. At the completion of the chemical exposure, surviving fish in each tank were sampled.
# The eggs females released on the bottom of the tank were collected by siphoning, and the egg clutches still on female abdomen were carefully picked from the body of the females captured using a small net. All the eggs collected were microscopically observed and separately counted for fertilized and unfertilized.
# Japanese medaka = conditions: MMT, ref Flynn et al. (2017), cited from earlier work
# [2] = hepatic VTG, 21-day exposure, measured conc.
smiles,measurement,setting,value
"C[C@]12CC[C@@H]3c4ccc(O)cc4CC[C@H]3[C@@H]1CC[C@@H]2O [E2, 17β‐Estradiol]",LOEC on VTG induction in male (in molarity),"[1]; hepatic VTG, 21-day exposure",81 pM
same,LOEC for VTG induction in males,[1]; [2],22.1 ng/L
same,LOEC on male VTG induction: times smaller than the LOEC for CMP,[1]; in vivo,"more than 8,000 times"
same,"effect on male GSI, in words",[1]; in vivo,significant decreasing
same,Fertility rate (%),[1]; measured conc. 22.1 ng/L,90%
same,Mortality (%) Female,[1]; measured conc. 22.1 ng/L,0%
same,Mortality (%) Male,[1]; measured conc. 22.1 ng/L,0%
same,Number of fertilized eggs,[1]; measured conc. 22.1 ng/L,18
same,Number of total eggs,[1]; measured conc. 22.1 ng/L,20 ± 2.9 /female/day
same,SSC Female,[1]; measured conc. 22.1 ng/L,0 ± 0
same,SSC Male,[1]; measured conc. 22.1 ng/L,109 ± 10
same,VTG (ng/mg of liver) Female,[1]; measured conc. 22.1 ng/L,"3,420 ± 991 ng/mg of liver"
same,VTG (ng/mg of liver) Male,[1]; measured conc. 22.1 ng/L,424 ± 379 ng/mg of liver
same,GSI Female,[1]; measured conc. 22.1 ng/L,10.3%
same,GSI Male,[1]; measured conc. 22.1 ng/L,0.82%
same,HSI Female,[1]; measured conc. 22.1 ng/L,4.4%
same,HSI Male,[1]; measured conc. 22.1 ng/L,2.0%
same,Length Female,[1]; measured conc. 22.1 ng/L,36.8 mm
same,Length Male,[1]; measured conc. 22.1 ng/L,36.4 mm
same,Weight Female,[1]; measured conc. 22.1 ng/L,573 mg
same,Weight Male,[1]; measured conc. 22.1 ng/L,507 mg
same,Fertility rate (%),[1]; measured conc. 115 ng/L,95%
same,Mortality (%) Female,[1]; measured conc. 115 ng/L,8%
same,Mortality (%) Male,[1]; measured conc. 115 ng/L,8%
same,Number of fertilized eggs,[1]; measured conc. 115 ng/L,21
same,Number of total eggs,[1]; measured conc. 115 ng/L,22 ± 1.5 /female/day
same,SSC Female,[1]; measured conc. 115 ng/L,0 ± 0
same,SSC Male,[1]; measured conc. 115 ng/L,112 ± 10
same,VTG (ng/mg of liver) Female,[1]; measured conc. 115 ng/L,"5,500 ± 1,370 ng/mg of liver"
same,VTG (ng/mg of liver) Male,[1]; measured conc. 115 ng/L,"13,400 ± 1900 ng/mg of liver"
same,GSI Female,[1]; measured conc. 115 ng/L,11.4%
same,GSI Male,[1]; measured conc. 115 ng/L,0.67%
same,HSI Female,[1]; measured conc. 115 ng/L,4.3%
same,HSI Male,[1]; measured conc. 115 ng/L,2.5%
same,Length Female,[1]; measured conc. 115 ng/L,35.6 mm
same,Length Male,[1]; measured conc. 115 ng/L,35.8 mm
same,Weight Female,[1]; measured conc. 115 ng/L,517 mg
same,Weight Male,[1]; measured conc. 115 ng/L,512 mg
same,Fertility rate (%),[1]; measured conc. 553 ng/L,85%
same,Mortality (%) Female,[1]; measured conc. 553 ng/L,17%
same,Mortality (%) Male,[1]; measured conc. 553 ng/L,8%
same,Number of fertilized eggs,[1]; measured conc. 553 ng/L,9.4
same,Number of total eggs,[1]; measured conc. 553 ng/L,13 ± 1.9 /female/day
same,SSC Female,[1]; measured conc. 553 ng/L,0 ± 0
same,SSC Male,[1]; measured conc. 553 ng/L,97 ± 14
same,VTG (ng/mg of liver) Female,[1]; measured conc. 553 ng/L,"18,900 ± 5,910 ng/mg of liver"
same,VTG (ng/mg of liver) Male,[1]; measured conc. 553 ng/L,"19,900 ± 3,570 ng/mg of liver"
same,GSI Female,[1]; measured conc. 553 ng/L,11.2%
same,GSI Male,[1]; measured conc. 553 ng/L,0.31%
same,HSI Female,[1]; measured conc. 553 ng/L,4.4%
same,HSI Male,[1]; measured conc. 553 ng/L,3.2%
same,Length Female,[1]; measured conc. 553 ng/L,35.0 mm
same,Length Male,[1]; measured conc. 553 ng/L,35.0 mm
same,Weight Female,[1]; measured conc. 553 ng/L,512 mg
same,Weight Male,[1]; measured conc. 553 ng/L,488 mg
same,"effect on fecundity (number of total eggs), in words",[1]; 21-day exposure,significant decrease
same,LOEC on male VTG induction,Japanese medaka; long-term exposure,28 ng/L
"CC/C(=C(\c1ccccc1)c1ccc(OCCN(C)C)cc1)c1ccccc1 [TAM, tamoxifen citrate]",time from initiation of treatment to drastic reduction of daily fecundity,"[1]; both, NIES-R, Japanese medaka (Oryzias latipes), in vivo",≤ 3 days
same,LOEC for VTG induction in males,[1]; [2],10000 ng/L
same,LOEC for decrease of VTG in females,[1]; [2],10.0 µg/L
same,LOEC on female VTG: times lower than that for RAL,[1]; in vivo,70 times
same,Fertility rate (%),[1]; measured conc. 10.0 μg/L,94%
same,Mortality (%) Female,[1]; measured conc. 10.0 μg/L,0%
same,Mortality (%) Male,[1]; measured conc. 10.0 μg/L,0%
same,Number of fertilized eggs,[1]; measured conc. 10.0 μg/L,12
same,Number of total eggs,[1]; measured conc. 10.0 μg/L,13 ± 1.1 /female/day
same,SSC Female,[1]; measured conc. 10.0 μg/L,0 ± 0
same,SSC Male,[1]; measured conc. 10.0 μg/L,85 ± 11
same,VTG (ng/mg of liver) Female,[1]; measured conc. 10.0 μg/L,666 ± 96 ng/mg of liver
same,VTG (ng/mg of liver) Male,[1]; measured conc. 10.0 μg/L,181 ± 30.0 ng/mg of liver
same,GSI Female,[1]; measured conc. 10.0 μg/L,7.3%
same,GSI Male,[1]; measured conc. 10.0 μg/L,0.89%
same,HSI Female,[1]; measured conc. 10.0 μg/L,3.6%
same,HSI Male,[1]; measured conc. 10.0 μg/L,2.2%
same,Length Female,[1]; measured conc. 10.0 μg/L,32.3 mm
same,Length Male,[1]; measured conc. 10.0 μg/L,33.6 mm
same,Weight Female,[1]; measured conc. 10.0 μg/L,369 mg
same,Weight Male,[1]; measured conc. 10.0 μg/L,419 mg
same,Fertility rate (%),[1]; measured conc. 83.3 μg/L,76%
same,Mortality (%) Female,[1]; measured conc. 83.3 μg/L,8.3%
same,Mortality (%) Male,[1]; measured conc. 83.3 μg/L,0%
same,Number of fertilized eggs,[1]; measured conc. 83.3 μg/L,1.6
same,Number of total eggs,[1]; measured conc. 83.3 μg/L,2.2 ± 0.8 /female/day
same,SSC Female,[1]; measured conc. 83.3 μg/L,0 ± 0
same,SSC Male,[1]; measured conc. 83.3 μg/L,85 ± 7.0
same,VTG (ng/mg of liver) Female,[1]; measured conc. 83.3 μg/L,335 ± 138 ng/mg of liver
same,VTG (ng/mg of liver) Male,[1]; measured conc. 83.3 μg/L,319 ± 126 ng/mg of liver
same,GSI Female,[1]; measured conc. 83.3 μg/L,11.5%
same,GSI Male,[1]; measured conc. 83.3 μg/L,0.87%
same,HSI Female,[1]; measured conc. 83.3 μg/L,4.2%
same,HSI Male,[1]; measured conc. 83.3 μg/L,2.5%
same,Length Female,[1]; measured conc. 83.3 μg/L,32.9 mm
same,Length Male,[1]; measured conc. 83.3 μg/L,32.5 mm
same,Weight Female,[1]; measured conc. 83.3 μg/L,418 mg
same,Weight Male,[1]; measured conc. 83.3 μg/L,374 mg
same,"effect on fecundity (number of total eggs), in words",[1]; 21-day exposure,statistically significant decrease
same,LOEC on female VTG (reduction),Japanese medaka,1.3 µg/L
